This note sets out measurements from patent US20180000085A1, “USE OF PICOLINAMIDE COMPOUNDS WITH FUNGICIDAL ACTIVITY” (DOW AGROSCIENCES LLC, priority 2014, published 2018).

Test [1] relates to Puccinia triticina. Put plainly: Wheat brown rust (PUCCRT) disease control on wheat seedlings. The test is classed as in vivo. Set-up: key to PUCCRT 3DC, HV activity at 100 ppm (% control rating) / PUCCRT disease control, 3DC / PUCCRT 1DP disease control rating, HV activity / PUCCRT 3DC disease control rating, HV activity / PUCCRT 3DC, LV activity at 125.1 g/H (% Control rating) / PUCCRT 1DP, LV activity at 125.1 g/H (% Control rating) / PUCCRT 3DC disease control rating, LV activity at 125.1 g/H / PUCCRT 1DP disease control rating, LV activity at 125.1 g/H / PUCCRT 3DC disease control rating, HV activity at 100 ppm / PUCCRT 1DP disease control rating, HV activity at 100 ppm / HV activity at 100 ppm PUCCRT 3DC (disease control rating) / LV activity at 125.1 g/H PUCCRT 1DP (disease control rating) / LV activity at 125.1 g/H PUCCRT 3DC (disease control rating): A: > 80; B: ≤ 80; C: Not Tested; D: No Activity Observed in the Reported Assay. Conditions: for HV activity at 100 ppm PUCCRT 1DP (disease control rating) / HV activity at 100 ppm PUCCRT 3DC (disease control rating): HV application; for PUCCRT 1DP disease control rating, LV activity at 125.1 g/H / PUCCRT 3DC disease control rating, LV activity at 125.1 g/H / PUCCRT 1DP, LV activity at 125.1 g/H (% Control rating) / PUCCRT 3DC, LV activity at 125.1 g/H (% Control rating) / LV activity at 125.1 g/H PUCCRT 1DP (disease control rating) / LV activity at 125.1 g/H PUCCRT 3DC (disease control rating): low volume application; for PUCCRT 1DP disease control rating, LV activity at 125.1 g/H: 1 day protectant; for PUCCRT 3DC disease control rating, LV activity at 125.1 g/H: 3 day curative.

Test [2] concerns Zymoseptoria tritici. The test can be described thus: Leaf blotch of wheat (SEPTTR) disease control on wheat seedlings. The test is classed as in vivo. More on the design: key to SEPTTR 1DP, HV activity at 100 ppm (% control rating) / SEPTTR 3DC, HV activity at 100 ppm (% control rating) / SEPTTR disease control, 1DP / SEPTTR disease control, 3DC / SEPTTR 1DP disease control rating, HV activity / SEPTTR 3DC disease control rating, HV activity / SEPTTR 3DC, LV activity at 125.1 g/H (% Control rating) / SEPTTR 1DP, LV activity at 125.1 g/H (% Control rating) / SEPTTR 1DP disease control rating, LV activity at 125.1 g/H / SEPTTR 3DC disease control rating, LV activity at 125.1 g/H / SEPTTR 3DC disease control rating, HV activity at 100 ppm / SEPTTR 1DP disease control rating, HV activity at 100 ppm / HV activity at 100 ppm SEPTTR 3DC (disease control rating) / HV activity at 100 ppm SEPTTR 1DP (disease control rating) / LV activity at 125.1 g/H SEPTTR 1DP (disease control rating) / LV activity at 125.1 g/H SEPTTR 3DC (disease control rating): A: > 80; B: ≤ 80; C: Not Tested; D: No Activity Observed in the Reported Assay. As to conditions: for HV activity at 100 ppm SEPTTR 1DP (disease control rating) / HV activity at 100 ppm SEPTTR 3DC (disease control rating): HV application; for SEPTTR 1DP disease control rating, LV activity at 125.1 g/H / SEPTTR 3DC disease control rating, LV activity at 125.1 g/H / SEPTTR 1DP, LV activity at 125.1 g/H (% Control rating) / SEPTTR 3DC, LV activity at 125.1 g/H (% Control rating) / LV activity at 125.1 g/H SEPTTR 1DP (disease control rating) / LV activity at 125.1 g/H SEPTTR 3DC (disease control rating): low volume application; for SEPTTR 1DP disease control rating, LV activity at 125.1 g/H: 1 day protectant; for SEPTTR 3DC disease control rating, LV activity at 125.1 g/H: 3 day curative.

The mark [3] stands for this setting: 1 Day Protectant, wheat brown rust.
Where [4] appears, read: 3 Day Curative, wheat brown rust.
Setting [5] is: 1 Day Protectant, wheat leaf blotch.
[6] abbreviates: 3 Day Curative, wheat leaf blotch.

For the compound `COc1ccnc(C(=O)N[C@@H](C)C(=O)O[C@@H](C)[C@@H](CC(C)C)Oc2ccc3ccccc3c2)c1O` [Cmpd 1046], the “HV activity at 100 ppm PUCCRT 1DP (disease control rating)” value in test [1] (setting [3]) is “A (> 80)”. For the same compound, the “HV activity at 100 ppm PUCCRT 3DC (disease control rating)” value in test [1] (setting [4]) is “A (> 80)”. Besides, the “HV activity at 100 ppm SEPTTR 1DP (disease control rating)” value in test [2] (setting [5]) is given as “D”. Moreover, the “HV activity at 100 ppm SEPTTR 3DC (disease control rating)” value in test [2] (setting [6]) is listed as “D”.
In the case of `COc1ccnc(C(=O)N[C@@H](C)C(=O)O[C@@H](C)[C@@H](Oc2cccc(Cl)c2)C(C)C)c1OCOC(C)=O` [Cmpd 852], in test [1], the “PUCCRT 1DP disease control rating, LV activity at 125.1 g/H” value is listed as “A (> 80)” and the “PUCCRT 3DC disease control rating, LV activity at 125.1 g/H” value is “A (> 80)”. Moreover, in test [2], the “SEPTTR 1DP disease control rating, LV activity at 125.1 g/H” value is listed as “B (≤ 80)” and the “SEPTTR 3DC disease control rating, LV activity at 125.1 g/H” value is listed as “A (> 80)”.
Regarding `CCC(CC)[C@@H](Oc1cc(F)ccc1F)[C@H](C)OC(=O)[C@H](C)NC(=O)c1nccc(OC)c1OC(C)=O` [Cmpd 602], in test [1] (1 Day Protectant), the “PUCCRT 1DP, LV activity at 125.1 g/H (% Control rating)” value is listed as “A (> 80)”. The “PUCCRT 3DC, LV activity at 125.1 g/H (% Control rating)” value in test [1] (3 Day Curative) was “A (> 80)”. In test [2] (1 Day Protectant), the “SEPTTR 1DP, LV activity at 125.1 g/H (% Control rating)” value is “A (> 80)”. The “SEPTTR 3DC, LV activity at 125.1 g/H (% Control rating)” value in test [2] (3 Day Curative) was “A (> 80)”.
Regarding `CCOc1ccnc(C(=O)N[C@@H](C)C(=O)O[C@@H](C)[C@@H](CC(C)C)Oc2cc(F)ccc2F)c1O` [Cmpd 1040], the “HV activity at 100 ppm PUCCRT 1DP (disease control rating)” value in test [1] (setting [3]) is given as “B (≤ 80)”. For the same compound, the “HV activity at 100 ppm PUCCRT 3DC (disease control rating)” value in test [1] (setting [4]) is on record as “A (> 80)”. Besides, the “HV activity at 100 ppm SEPTTR 1DP (disease control rating)” value in test [2] (setting [5]) is “D”. Also, the “HV activity at 100 ppm SEPTTR 3DC (disease control rating)” value in test [2] (setting [6]) was “D”.
As to `COc1ccnc(C(=O)N[C@@H](C)C(=O)O[C@@H](C)[C@H](Oc2ccccc2)C2CCCC2)c1O` [Cmpd 356], the “PUCCRT 1DP disease control rating, HV activity” value in test [1] (HV application at 100 ppm, 1 Day Protectant, wheat brown rust) was “A (> 80)”. Moreover, the “PUCCRT 3DC disease control rating, HV activity” value in test [1] (HV application at 100 ppm, 3 Day Curative, wheat brown rust) was “A (> 80)”. Moreover, the “SEPTTR 1DP disease control rating, HV activity” value in test [2] (HV application at 100 ppm, 1 Day Protectant, wheat leaf blotch) is reported as “A (> 80)”. Also, the “SEPTTR 3DC disease control rating, HV activity” value in test [2] (HV application at 100 ppm, 3 Day Curative, wheat leaf blotch) is reported as “B (≤ 80)”.
In the case of `CC[C@H](C)[C@H](NC(=O)c1nccc(OC)c1OC(C)=O)C(=O)O[C@@H](C)[C@H](Oc1cc(F)ccc1F)C(C)C` [Cmpd 630], the “PUCCRT 1DP, LV activity at 125.1 g/H (% Control rating)” value in test [1] (1 Day Protectant) was “A (> 80)”. Besides, the “PUCCRT 3DC, LV activity at 125.1 g/H (% Control rating)” value in test [1] (3 Day Curative) is listed as “A (> 80)”. Also, in test [2] (1 Day Protectant), the “SEPTTR 1DP, LV activity at 125.1 g/H (% Control rating)” value is reported as “D”. The “SEPTTR 3DC, LV activity at 125.1 g/H (% Control rating)” value in test [2] (3 Day Curative) is “D”.
Turning to `C=CC[C@@H](OCC(=C)C)[C@H](C)OC(=O)[C@H](C)NC(=O)c1nccc(OC)c1OC(C)=O` [Cmpd 1074], in test [1] (setting [3]), the “LV activity at 125.1 g/H PUCCRT 1DP (disease control rating)” value (“LV activity at 125.1 g/H PUCCRT 1DP” below) is “D”. The “LV activity at 125.1 g/H PUCCRT 3DC (disease control rating)” value (“LV activity at 125.1 g/H PUCCRT 3DC” for short) in test [1] (setting [4]) is “B (≤ 80)”. The “LV activity at 125.1 g/H SEPTTR 1DP (disease control rating)” value (from here on “LV activity at 125.1 g/H SEPTTR 1DP”) in test [2] (setting [5]) is given as “D”. In addition, the “LV activity at 125.1 g/H SEPTTR 3DC (disease control rating)” value (from here on “LV activity at 125.1 g/H SEPTTR 3DC”) in test [2] (setting [6]) is listed as “D”.
For the compound `CCC[C@@H](Oc1cccc(OC)c1)[C@H](C)OC(=O)[C@H](C)NC(=O)c1nccc(OC)c1OC(C)=O` [Cmpd 1063], the “LV activity at 125.1 g/H PUCCRT 1DP” value in test [1] (setting [3]) was “A (> 80)”. Moreover, the “LV activity at 125.1 g/H PUCCRT 3DC” value in test [1] (setting [4]) is reported as “A (> 80)”. Moreover, the “LV activity at 125.1 g/H SEPTTR 1DP” value in test [2] (setting [5]) is on record as “B (≤ 80)”. Moreover, the “LV activity at 125.1 g/H SEPTTR 3DC” value in test [2] (setting [6]) was “A (> 80)”.
Regarding `COc1ccnc(C(=O)N[C@@H](C)C(=O)O[C@@H](C)[C@H](Oc2ccc(C)cc2)C2CC2)c1OC(C)=O` [Cmpd 1058], the “LV activity at 125.1 g/H PUCCRT 1DP” value in test [1] (setting [3]) was “A (> 80)”. In addition, the “LV activity at 125.1 g/H PUCCRT 3DC” value in test [1] (setting [4]) is on record as “A (> 80)”. Further, the “LV activity at 125.1 g/H SEPTTR 1DP” value in test [2] (setting [5]) was “B (≤ 80)”. The “LV activity at 125.1 g/H SEPTTR 3DC” value in test [2] (setting [6]) is recorded as “B (≤ 80)”.
`CCC(CC)C(Oc1cc(F)ccc1F)C(C)OC(=O)C(CC(C)C)NC(=O)c1nccc(OC)c1OCOC(C)=O` (stereo not shown) [Cmpd 682]: in test [1], the “PUCCRT 1DP disease control rating, LV activity at 125.1 g/H” value is given as “B (≤ 80)” and the “PUCCRT 3DC disease control rating, LV activity at 125.1 g/H” value is given as “B (≤ 80)”. Also, in test [2], the “SEPTTR 1DP disease control rating, LV activity at 125.1 g/H” value is recorded as “B (≤ 80)” and the “SEPTTR 3DC disease control rating, LV activity at 125.1 g/H” value is “B (≤ 80)”.
